According to article PMC9804470, “A Formylglycine‐Peptide for the Site‐Directed Identification of Phosphotyrosine‐Mimetic Fragments” (Chemistry (Weinheim an Der Bergstrasse, Germany), 2022):
Entries after “also recorded” stand apart in the source; their conditions may differ. Read-outs that look alike come from different tables or passages of the source. *1 amine or outer side, *2 acyl side, *3 side chain or, on linkers, in order; H or OH if unused. [ ]: non-standard residue; d: D form. F2Pmp = N[C@@H](Cc1ccc(C(F)(F)P(=O)(O)O)cc1)C(=O)O; fGly = 2-formylglycine, O=C[C@H](N[*:1])C(=O)[*:2]; Dap = NC[C@H](N)C(=O)O

Legend:
[1] = system: HGF‐induced tyrosine phosphorylation of ERK 1/2 in HeLa cells; experiment: Western blot of p-ERK in HGF-stimulated HeLa cells; assay type: cell-based; settings: 1 h treatment, Western blot, DMSO control
Experimental: Cellular experiments: HeLa cells were cultivated in DMEM buffer with 10 % FCS in 75 cm^2 cell culture flasks at 37 °C, 5 % CO2. At confluency of about 75 %, cells were seeded in a density of 250,000 cells/mL in 6‐well plates and incubated for 24 h. Subsequently, medium was removed and replaced by DMEM buffer with 0.1 % BSA (1 mL per well) and incubated for another 16 h. Hepatocyte growth factor (HGF, 20 ng/well) and test compounds in different final concentrations (1 μL, in DMSO) were added. Control wells received the same amount of DMSO (final concentration 0.1 %) or no addition. Plates were incubated for 1 h, then washed with cold PBS and shaken with lysis buffer (mPer reagent ThermoScientific # 78501 with 1 mM NaF, 2 mM Na3VO4, 25× protease inhibitor) for 5 min. Cell lysates were transferred to Eppendorf cups and centrifuged at 4 °C with 10,000 g for 10 min. […] The blot was incubated with anti‐phospo‐ERK as primary antibody (Cell Signaling # 9106, dilution 1 : 2000 in TBS‐Tween/ 2 % BSA) overnight at 4 °C, washed 3×5 min with TBS‐Tween, and incubated with anti‐mouse IgG‐hrp as secondary antibody (Santa Cruz # sc2031, 1 : 6000 in TBS‐ Tween/ 2 % BSA, RT, 1.5 h). The blot was again washed 3×5 min with TBS‐Tween and imaged with the ECL system (ThermoScientific # 34080) at Syngene PXi Imager. From the same lysis sample, under the same conditions, ERK 1/2 and β‐tubulin were blotted. For β‐tubulin, the antibody incubation time was adjusted to 2 h at RT.

[2] = system: SHP2 signaling; settings: cited from earlier work
Text: (§1) Our next goal was to validate the three phosphotyrosine mimetics F1, F2, and F4 identified by fragment ligation screening as substructures of heterocyclic and cell‐penetrating SHP2‐inhibitors. The potent SHP2‐specific inhibitor GS‐493 was selected as a reference compound. […] In combination with a kinase inhibitor, GS‐493 ...

[3] = system: pancreas cancer; settings: in combination with a kinase inhibitor; cited from earlier work
Text: as §1

[4] = system: mammary gland tumors; settings: endogeneous cancer model; cited from earlier work
Text: as §1

[5] = Solubility of peptide 3; assay type: physicochemical; settings: in water, buffer, and DMSO; qualitative
[6] = target: T1, catalytic domain of human PTP1B (Homo sapiens, UniProt P18031); experiment: Enzyme activity assay of PTP1B with fluorogenic substrate DiFMUP; assay type: biochemical; settings: for Ki: read-out: KI PTP1B
T1 construct: catalytic domain of human PTP1B (amino acids 1–321); His7 (N, cleaved yes); made in house; host or cells: E. coli Rosetta (DE3)
T1 sequence (P18031 1-321): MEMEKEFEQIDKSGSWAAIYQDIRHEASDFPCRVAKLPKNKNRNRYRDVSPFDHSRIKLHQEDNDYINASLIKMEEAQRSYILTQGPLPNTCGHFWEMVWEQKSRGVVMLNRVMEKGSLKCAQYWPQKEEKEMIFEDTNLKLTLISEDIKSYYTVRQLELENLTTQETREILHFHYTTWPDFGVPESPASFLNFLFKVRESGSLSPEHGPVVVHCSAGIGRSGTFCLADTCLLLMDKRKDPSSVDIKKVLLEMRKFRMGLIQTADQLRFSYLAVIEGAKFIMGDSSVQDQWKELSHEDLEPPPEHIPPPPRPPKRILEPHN
Experimental: Protein Expression and purification: DNA encoding the catalytic domain of human PTP1B (amino acids 1–321) was subcloned into the pQLinkH vector. The gene encoding the N‐terminal His7‐tagged protein was over‐expressed at 17 °C in E. coli Rosetta (DE3). […] The His7‐tag was cleaved with tobacco etch virus protease at 20 °C prior to the gel‐filtration step. The catalytic domain of human SHP2 (amino acids 225–541) was purified from E. coli B21 (DE3). The overexpressed protein was fused to an N‐terminal His10‐tag. Cells were harvested and resuspended in 25 mM Tris‐HCl (pH=7.5), 50 mM NaCl, 1 % (v/v) Triton X‐100, 10 % (v/v) glycerol, 1 mM DTT. After cell lysis, debris was removed by centrifugation at 12,000 rpm for 30 min. The supernatant was filtered prior to affinity purification with Ni‐NTA agarose (Qiagen). The slurry was washed with 50 mM Tris‐HCl (pH=8.0), 500 mM NaCl supplemented with 25 mM imidazole. Reasonably pure protein was eluted with 200–300 mM imidazole. The purification was completed by size‐exclusion chromatography with a Superdex 75 16/600 column (GE Healthcare) equilibrated with 20 mM HEPES‐NaOH (pH=7.5), 50 mM NaCl, 1 mM DTT.
(§2) Enzyme activity assays of SHP2 and PTP1B: The catalytic activity of SHP2 catalytic domain and PTP1B were monitored using the fluorogenic substrate DiFMUP (6,8‐difluoro‐4‐methylumbelliferyl phosphate). Phosphatase reactions were performed at room temperature in 384‐well black plate, clear flat bottom, low flange, non‐binding surface (Corning, Cat# 3766) using a final volume of 20 μL and the following assay buffer conditions: 50 mM MOPS, pH=6.5, 200 mM NaCl, 50 μM TCEP, 0.03 % Tween‐20 (freshly added prior to each measurement). Test compounds were dissolved in DMSO or buffer at stock concentrations of 50, 20 or 10 mM and serially diluted. Enzyme (5 nM PTP1B or 2.5 nM SHP2 catalytic domain) and different concentrations of the tested compounds were incubated in buffer for 30–60 min at room temperature. Measurements were performed with a final concentration of 2.5 % DMSO unless stated otherwise at 37 °C and were performed in triplicate. Enzymatic reactions were started by adding DiFMUP (Invitrogen, cat# D6567) concentrations matching the experimentally determined KM values of the enzymes of 67 μM (PTP1B) or 72 μM (SHP2). Samples were excited at a wavelength of 360 nm and emitted fluorescence was recorded at 460 for 10 min using a microplate reader (infinite M1000 Pro, Tecan). Initial slope of fluorescence was determined in triplicate and IC50 values were calculated with GraphPad Prism 5. Determined IC50 values were converted into the corresponding KI values applying the Cheng Prusoff equation KI =IC50 /(1+[S]/KM ).

[7] = target: T2, PTP1B (Homo sapiens, UniProt P18031); experiment: Dynamic ligation screening of nucleophilic fragments with formylglycine peptide 3, PTP1B; assay type: biochemical; settings: 3 100 μM pre-incubated 5 min, fragment 200 μM, 30 min RT before DiFMUP, triplicates
T2 construct: catalytic domain of human PTP1B (amino acids 1–321); His7 (N, cleaved yes); made in house; host or cells: E. coli Rosetta (DE3)
T2 sequence (P18031 1-321): T1 sequence (P18031 1-321)
Experimental: as §2
(§3) Dynamic ligation screening of nucleophilic fragments with 3: Under assay conditions described above, PTP1B or SHP2 were pre‐incubated with 3 (100 μM) for 5 min. Subsequently, (200 μM) of the respective fragments were added and the resulting mixtures were incubated for 30 min at RT, prior to DiFMUP addition.

[8] = target: T3, SHP2 (Homo sapiens, UniProt Q06124); experiment: Dynamic ligation screening of nucleophilic fragments with formylglycine peptide 3, SHP2; assay type: biochemical; settings: 3 100 μM pre-incubated 5 min, fragment 200 μM, 30 min RT before DiFMUP, triplicates
T3 construct: catalytic domain of human SHP2 (amino acids 225–541); His10 (N); made in house; host or cells: E. coli B21 (DE3)
T3 sequence (Q06124 225-541): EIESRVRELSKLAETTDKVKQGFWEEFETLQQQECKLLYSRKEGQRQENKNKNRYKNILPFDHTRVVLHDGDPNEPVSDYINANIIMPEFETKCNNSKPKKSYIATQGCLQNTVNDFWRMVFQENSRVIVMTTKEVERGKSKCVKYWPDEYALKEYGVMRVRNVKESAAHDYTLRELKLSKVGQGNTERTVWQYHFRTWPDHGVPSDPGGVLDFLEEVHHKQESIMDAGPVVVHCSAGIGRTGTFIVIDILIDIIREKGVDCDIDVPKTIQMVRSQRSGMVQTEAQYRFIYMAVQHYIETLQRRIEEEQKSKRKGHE
Experimental: as §2, §3

[9] = target: T4, catalytic domain of human SHP2 (Homo sapiens, UniProt Q06124); experiment: Enzyme activity assay of SHP2 catalytic domain with fluorogenic substrate DiFMUP; assay type: biochemical; settings: hydrazine fragments alone, DiFMUP assay; Supporting Table 1
T4 construct: catalytic domain of human SHP2 (amino acids 225–541); His10 (N); made in house; host or cells: E. coli B21 (DE3)
T4 sequence (Q06124 225-541): T3 sequence (Q06124 225-541)
Experimental: Enzyme activity assays of SHP2 and PTP1B: The catalytic activity of SHP2 catalytic domain and PTP1B were monitored using the fluorogenic substrate DiFMUP (6,8‐difluoro‐4‐methylumbelliferyl phosphate). Phosphatase reactions were performed at room temperature in 384‐well black plate, clear flat bottom, low flange, non‐binding surface (Corning, Cat# 3766) using a final volume of 20 μL and the following assay buffer conditions: 50 mM MOPS, pH=6.5, 200 mM NaCl, 50 μM TCEP, 0.03 % Tween‐20 (freshly added prior to each measurement). Test compounds were dissolved in DMSO or buffer at stock concentrations of 50, 20 or 10 mM and serially diluted. Enzyme (5 nM PTP1B or 2.5 nM SHP2 catalytic domain) and different concentrations of the tested compounds were incubated in buffer for 30–60 min at room temperature. […] Enzymatic reactions were started by adding DiFMUP (Invitrogen, cat# D6567) concentrations matching the experimentally determined KM values of the enzymes of 67 μM (PTP1B) or 72 μM (SHP2). Samples were excited at a wavelength of 360 nm and emitted fluorescence was recorded at 460 for 10 min using a microplate reader (infinite M1000 Pro, Tecan). Initial slope of fluorescence was determined in triplicate and IC50 values were calculated with GraphPad Prism 5. Determined IC50 values were converted into the corresponding KI values applying the Cheng Prusoff equation KI =IC50 /(1+[S]/KM ).

[10] = target: T2, PTP1B; experiment: Apparent KI values of in situ ligation products of 3 (time- and concentration-dependent assay); assay type: biochemical; settings: for Effect of fragment ligation with 3 on inhibition curves of PTP1B: inhibition at different concentrations, with and without 3 / fragment (Figure 5C, D)
Experimental: as §2
Subsequently, over the course of 60 mins (every 15 min), 2 equivalents of fragment F1 were added to each of the different concentrations of 3 at RT, prior to DiFMUP addition.
Subsequently, fragment F2 was added at three different concentrations (1 equiv, 2 equiv, and 4 equiv) and the resulting mixtures were incubated for 30 min at RT, prior to DiFMUP addition.

[11] = target: T5, peptide 2 Ac-DADE(PDFM-F)L-NH2 (Homo sapiens, UniProt P00533); experiment: DiFMUP enzyme inhibition assay
T5 chain: Ac-DADE[F2Pmp]L-NH2

[12] = target: T6, peptide 16 (Homo sapiens, UniProt P00533, not fully specified (residue 5); also: formylglycine reductively aminated with aryl amine F4, place not in chain); experiment: DiFMUP enzyme inhibition assay
T6 chain: Ac-DADEYL-NH2

[13] = target: T7, peptide 15 (Homo sapiens, UniProt P00533, not fully specified (residue 5); also: formylglycine reductively aminated with 4-amino-phenyl-acetic acid F1, place not in chain); experiment: DiFMUP enzyme inhibition assay
T7 chain: Ac-DADEYL-NH2

[14] = target: T8, peptide 17 (Homo sapiens, UniProt P00533, not fully specified (residue 5); also: reduced Knoevenagel product of formylglycine with barbituric acid, place not in chain); experiment: DiFMUP enzyme inhibition assay
T8 chain: Ac-DADEYL-NH2

[15] = target: T9, peptide 18 (Homo sapiens, UniProt P00533); experiment: DiFMUP enzyme inhibition assay
T9 chain: Ac-DADE[Dap](4‑trifluoromethylsulfonylamido‑phenyl)L-NH2

[16] = target: T10, formylglycine peptide 3 (Homo sapiens, UniProt P00533); experiment: DiFMUP enzyme inhibition assay
T10 chain: Ac-DADE[fGly]L-NH2

O=C1/C(=N\Nc2ccc(S(=O)(=O)O)cc2)C(c2ccc([N+](=O)[O-])cc2)=NN1c1ccc([N+](=O)[O-])cc1 [GS‐493]
Effect on HGF‐induced tyrosine phosphorylation of ERK 1/2 [1]: decreased
Block of SHP2 signaling in cancer cells and animal models [2]: able to block SHP2 signaling
Effect on pancreas cancer [3]: able to suppress pancreas cancer
Effect on development of mammary gland tumors [4]: able to block the development of mammary gland tumors

CC(=O)N[C@@H](CC(=O)O)C(=O)N[C@@H](C)C(=O)N[C@@H](CC(=O)O)C(=O)N[C@@H](CCC(=O)O)C(=O)NC(C=O)C(=O)N[C@@H](CC(C)C)C(N)=O (stereo partly shown) [Compound 3, N‐Acetyl‐L‐aspartyl‐L‐alaninyl‐L‐aspartyl‐L‐glutamyl‐2‐formylglycyl‐L‐leucinyl‐amide]
Solubility [5]: highly soluble
Ki ([6]; SD): 484 ± 30 µM

Nc1ccc(OCC(=O)O)cc1 [Compound F4, 4‐amino‐phenoxyacetic acid]
Enhancement of inhibition of PTP1B by fragment in combination with peptide 3 (fragment ligation assay) [7]: over‐additive inhibition; also recorded: super‐additive inhibition
Enhancement of inhibition of SHP2 by fragment in combination with peptide 3 (fragment ligation assay) [8]: over‐additive inhibition; also recorded: super‐additive inhibition

NNc1ccc(S(=O)(=O)O)cc1 [Compound F3, 4‐hydrazo‐phenylsulfonic acid]
IC50 [9]: > 250 µM
Effect of fragment ligation with 3 on inhibition curves of PTP1B [10]: did not enforce inhibition of PTP1B further
IC50 ([6]; hydrazine fragments alone, DiFMUP assay, Supporting Table 1): 34 µM
Ki [6]: 17 µM

Nc1ccc(S(F)(F)(F)(F)F)cc1 [Compound F7, 4‐amino‐phenyl‐pentafluorosulfate]
Enhancement of inhibition of PTP1B by fragment in combination with peptide 3 (fragment ligation assay) [7]: inactive
Effect of fragment ligation with 3 on inhibition curves of PTP1B [10]: identical inhibition curves

Nc1ccc(NS(=O)(=O)C(F)(F)F)cc1 [Compound F2, N‐(4‐aminophenyl)‐trifluoromethyl sulfonamide]
Enhancement of inhibition of PTP1B by fragment in combination with peptide 3 (fragment ligation assay) [7]: over‐additive inhibition; also recorded: pronounced activity; also recorded: super‐additive inhibition
Enhancement of inhibition of SHP2 by fragment in combination with peptide 3 (fragment ligation assay) [8]: over‐additive inhibition; also recorded: super‐additive inhibition
Ki ([10]; PTP1B, ligation product of F2 with 3, read-out: apparent KI of fragment ligation product with 3 (legend of Figure 5B)): 17 µM

Nc1ccc(CC(=O)O)cc1 [Compound F1, 4‐amino‐phenyl‐acetic acid]
Enhancement of inhibition of PTP1B by fragment in combination with peptide 3 (fragment ligation assay) [7]: over‐additive inhibition; also recorded: super‐additive inhibition
Enhancement of inhibition of SHP2 by fragment in combination with peptide 3 (fragment ligation assay) [8]: over‐additive inhibition; also recorded: super‐additive inhibition

B1: PTP1B 1-321 (protein)
chain: T1 sequence (P18031 1-321)
Ki [11]: 1.4 µM
Ki [12]: 213 µM
Ki [13]: 138 µM
Ki [14]: 123 µM
Ki [15]: 202 µM
Ki [16]: 484 µM
